The values below are quoted from earlier work in patent US20240153607A1, “System for Determining Treatment Timing and Methods of Treatment Timed Based on Biological Process Indicators” (Arcascope Inc., priority 2022, published 2024).

For the data set the following is noted: cancer treatments in humans; [Hrushesky], [Lévi1990].

In the case of `COc1cccc2c1C(=O)c1c(O)c3c(c(O)c1C2=O)C[C@@](O)(C(=O)CO)C[C@@H]3O[C@H]1C[C@H](N)[C@H](O)[C@H](C)O1` [doxorubicin], the “time of day at which the drug is most tolerable (toxicity by time of day)” value was “most tolerable in the morning”.

Regarding `COc1cccc2c1C(=O)c1c(O)c3c(c(O)c1C2=O)C[C@@](O)(C(=O)CO)C[C@@H]3O[C@H]1C[C@H](N)[C@H](O[C@@H]2CCCCO2)[C@H](C)O1` [theprubicin], the “time of day at which the drug is most tolerable (toxicity by time of day)” value was “most tolerable in the morning”.
